Source: ChEMBL document CHEMBL1126797 (J Med Chem, 1993)

Tests used:
[1] = biological target: T1, DNA topoisomerase 1 (Homo sapiens, UniProt P11387); test: Inhibition of Topoisomerase I by cleavage complex formation in human HL-60 cells; format: cell-based
T1 sequence (P11387 whole entry): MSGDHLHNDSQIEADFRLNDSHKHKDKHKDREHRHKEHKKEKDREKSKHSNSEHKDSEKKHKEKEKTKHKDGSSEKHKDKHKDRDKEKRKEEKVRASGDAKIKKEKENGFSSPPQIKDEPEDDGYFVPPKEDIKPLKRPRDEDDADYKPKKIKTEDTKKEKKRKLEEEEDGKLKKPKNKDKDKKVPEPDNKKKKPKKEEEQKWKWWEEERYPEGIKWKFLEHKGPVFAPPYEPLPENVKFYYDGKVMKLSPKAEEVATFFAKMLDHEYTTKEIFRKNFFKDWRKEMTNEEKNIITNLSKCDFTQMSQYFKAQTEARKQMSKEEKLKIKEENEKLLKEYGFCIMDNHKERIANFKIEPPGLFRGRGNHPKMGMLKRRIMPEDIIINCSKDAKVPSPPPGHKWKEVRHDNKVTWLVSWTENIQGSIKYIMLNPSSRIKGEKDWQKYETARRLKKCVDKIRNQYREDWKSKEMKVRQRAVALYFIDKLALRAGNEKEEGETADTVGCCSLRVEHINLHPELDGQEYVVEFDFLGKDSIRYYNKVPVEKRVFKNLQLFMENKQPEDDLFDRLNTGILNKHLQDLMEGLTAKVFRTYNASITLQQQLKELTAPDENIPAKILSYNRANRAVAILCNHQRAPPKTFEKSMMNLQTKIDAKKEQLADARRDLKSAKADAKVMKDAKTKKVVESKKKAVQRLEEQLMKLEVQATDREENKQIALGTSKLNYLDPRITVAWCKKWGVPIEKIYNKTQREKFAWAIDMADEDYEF

[2] = system: Mus musculus; test: Relative survival in RAW117-H10 cells implanted mice in comparison to control at dose of 3.5 mg/kg; format: functional
[3] = Number of metastases in K1735-M2 murine melanoma cells after subcutaneous administration on days1,4,6,8 at dose of 3.5 mg/kg; format: functional, Mus musculus
[4] = system: HT-29; test: Tumor volume in HT-29 cells after subcutaneous administration on days 16,20,23,27,30,34,37,41,44,48 at dose of 3.5 mg/kg; format: functional, Homo sapiens
[5] = system: Mus musculus; test: Relative survival in L1210 lymphoid leukemic mice after subcutaneous administration on days 1,4,6,8 at dose of 3.5 mg/kg; format: functional
[6] = species on record: Mus musculus; test: Toxic dose in L1210 lymphoid leukemic mice; format: toxicity, organism-based; conditions: in vivo
[7] = system: Mus musculus; test: Highest active dose in L1210 lymphoid leukemic mice at range of 3.63-15.5 mg/kg; format: functional
[8] = system: L1210; test: Log of initial tumor cell population minus log of tumor cell population at end of treatment in L1210 lymphoid leukemic mice; format: functional, Mus musculus
[9] = species on record: Mus musculus; test: Percent median survival time of treated leukemic mice compared to control; format: functional
[10] = species on record: Mus musculus; test: Number of L1210 lymphoid leukemic mice cured out of […]; format: functional
[11] = system: Mus musculus; test: Toxic dose in L1210 lymphoid leukemic mice at dose of 20 mg/kg after i.v. drug dosing on hours 1 and 5; NT means not toxic; format: toxicity, organism-based; design: dose 20 mg/kg, route intravenous; conditions: in vivo, iv
[12] = system: L1210; test: Log of initial tumor cell population minus log of tumor cell population at end of treatment after i.v. drug dosing on hours 1 and 5; format: functional, Mus musculus
[13] = system: Mus musculus; test: Number of L1210 mice cured after i.v. drug dosing on hours 1 and 5; format: functional
[14] = system: Mus musculus; test: Median survival time of treated/control L1210 leukemic mice after i.v. drug dosing on hours 1 and 5; format: functional
[15] = system: Mus musculus; test: Highest active dose in L1210 lymphoid leukemic mice at dose range of 2.5-20 mg/kg after i.v. drug dosing on hours 1 and 5; format: functional
[16] = system: Mus musculus; test: Highest active dose in L1210 lymphoid leukemic mice after i.v. drug dosing on hours 1 and 5 at dose range of 1.25-20 mg/kg; format: functional
[17] = biological target: T1, DNA topoisomerase 1; test: Inhibition of Topoisomerase I by cleavage complex formation in intact human HL-60 cells; format: cell-based
[18] = system: Mus musculus; test: Median survival time of treated/control animals x 100 after i.v. drug dosing on hours 1 and 5; format: functional
[19] = system: L1210; test: Toxic dose in L1210 murine lymphoid leukemia at dose of 20 mg/kg after i.v. drug dosing on hours 1 and 5; NT means not toxic; format: toxicity, organism-based; design: dose 20 mg/kg, route intravenous; conditions: mouse, in vivo, iv
[20] = system: Mus musculus; test: Highest active dose in L1210 lymphoid leukemic mice at dose range of 2.37-12.00 mg/kg; format: functional
[21] = species on record: Mus musculus; test: Toxic dose to L1210 lymphoid leukemic mice; format: toxicity, organism-based; conditions: in vivo
[22] = system: Mus musculus; test: Highest active dose in L1210 lymphoid leukemic mice at range of 5-20 mg/kg; format: functional
[23] = system: HT-29; test: Tumor volume in HT-29 cells after subcutaneous administration on days 16,20,23,27,30,34,37,41,44,48 at dose of 1.5 mg/kg; format: functional, Homo sapiens
[24] = system: Mus musculus; test: Highest active dose in L1210 lymphoid leukemic mice at dose range of 0.3-1.5 mg/kg; format: functional
[25] = system: Mus musculus; test: Relative survival in L1210 lymphoid leukemic mice after subcutaneous administration on days1,4,6,8 at dose of 1.5 mg/kg; format: functional
[26] = Number of metastases in K1735-M2 murine melanoma cells after subcutaneous administration on days1,4,6,8 at dose of 1.5 mg/kg; format: functional, Mus musculus
[27] = system: Mus musculus; test: Relative survival in RAW117-H10 cells implanted mice in comparison to control at dose of 1.5 mg/kg; format: functional
[28] = system: Mus musculus; test: Highest active dose in L1210 lymphoid leukemic mice at dose of 2-4.5 mg/kg; format: functional
[29] = system: Mus musculus; test: Highest active dose in L1210 lymphoid leukemic mice at range of 10-80 mg/kg; format: functional
[30] = Number of metastases in K1735-M2 murine melanoma cells after subcutaneous administration on days1,4,6,8 at dose of 3 mg/kg; format: functional, Mus musculus
[31] = system: Mus musculus; test: Highest active dose in L1210 lymphoid leukemic mice at dose range of 2-4 mg/kg; format: functional
[32] = system: Mus musculus; test: Relative survival in L1210 lymphoid leukemic mice after subcutaneous administration on days 1,4,6,8 at dose of 3 mg/kg; format: functional
[33] = system: Mus musculus; test: Relative survival in RAW117-H10 cells implanted mice in comparison to control at dose of 3 mg/kg; format: functional
[34] = system: Mus musculus; test: Highest active dose in L1210 lymphoid leukemic mice at range of 1.35-3.74 mg/kg; format: functional
[35] = system: Mus musculus; test: Highest active dose in L1210 lymphoid leukemic mice at dose range of 10-40 mg/kg; format: functional
[36] = system: L1210; test: Toxic dose in L1210 murine lymphoid leukemia after i.v. drug dosing on hours 1 and 5; NT means not toxic at 20 mg/kg; format: toxicity, organism-based; design: dose 20 mg/kg, route intravenous; conditions: mouse, in vivo, iv
[37] = system: Mus musculus; test: Highest active dose in L1210 lymphoid leukemic mice at range of 1.25-20 mg/kg; format: functional
[38] = system: Mus musculus; test: Relative survival in RAW117-H10 cells implanted mice in comparison to control at dose of 6 mg/kg; format: functional
[39] = Number of metastases in K1735-M2 murine melanoma cells after subcutaneous administration on days1,4,6,8 at dose of 6 mg/kg; format: functional, Mus musculus
[40] = system: Mus musculus; test: Relative survival in L1210 lymphoid leukemic mice after subcutaneous administration on days1,4,6,8 at dose of 6 mg/kg; format: functional
[41] = system: Mus musculus; test: Highest active dose in L1210 lymphoid leukemic mice at dose of 5.3-12 mg/kg; format: functional

SMILES	IC50 [1] [µM]	Toxic dose [6] [mg/kg]	KE [8]	T/C [9] [%]	Cures [10]	further results
CC[C@@](O)(C(=O)[O-])c1cc2n(c(=O)c1CO)Cc1cc3c(N)c4c(cc3nc1-2)OCO4.[Na+]	4.3	–	–	–	–	T/C [2]: 1.75; Control [3]: 51%; Control [4]: 38%; T/C [5]: 2.56
CCC1(O)C(=O)OCc2c1cc1n(c2=O)Cc2cc3cc([N+](=O)[O-])ccc3nc2-1 (racemic)	–	31	5.97	233	0	Highest active dose [7]: 7.25 mg/kg
CCC(O)(C(=O)[O-])c1cc2n(c(=O)c1CO)Cc1cc3cc([O-])ccc3nc1-2.[Na+].[Na+] (centres undefined)	3.2	–	–	–	–	Toxic dose [11]: Non-toxic; KE [12]: 3.24; Cures [13]: 0; T/C [14]: 184%; Highest active dose [15]: 20 mg/kg
CCC1(O)C(=O)OCc2c1cc1n(c2=O)Cc2cc3c(NC(=O)CN)cccc3nc2-1.Cl (racemic)	0.57	–	–	–	–	Highest active dose [16]: 20 mg/kg; IC50 [17]: > 30 µM; T/C [18]: 180%; KE [12]: 2.95; Toxic dose [19]: Non-toxic; Cures [13]: 0
CC[C@@]1(O)C(=O)OCc2c1cc1n(c2=O)Cc2cc3c(Cl)cccc3nc2-1	0.086	–	0	150	0	Highest active dose [20]: 12 mg/kg
CCC1(O)C(=O)OCc2c1cc1n(c2=O)Cc2cc3cc(Cl)ccc3nc2-1 (racemic)	–	–	5.97	280	2	Toxic dose [21]: 40 mg/kg; Highest active dose [22]: 10 mg/kg
CC[C@@]1(O)C(=O)OCc2c1cc1n(c2=O)Cc2cc3c(N)c4c(cc3nc2-1)OCO4	0.048	–	5.8	336	4	Control [23]: 17%; Highest active dose [24]: 1.5 mg/kg; T/C [25]: 1.98; Control [26]: 17%; T/C [27]: 1.25
CC[C@@]1(O)C(=O)OCc2c1cc1n(c2=O)Cc2cc3cc(N)ccc3nc2-1	0.14	–	>5.99	565	6	Highest active dose [28]: 4.5 mg/kg
CCC1(O)C(=O)OCc2c1cc1n(c2=O)Cc2cc3cc(C)ccc3nc2-1 (racemic)	–	–	4.66	207	0	Highest active dose [29]: 10 mg/kg
CCC1(O)C(=O)OCc2c1cc1n(c2=O)Cc2cc3cc4c(cc3nc2-1)OCO4 (racemic)	–	8	5.97	325	2	Control [30]: 65%; Highest active dose [31]: 2 mg/kg; T/C [32]: 1.22; T/C [33]: 1.04
CCC1(O)C(=O)OCc2c1cc1n(c2=O)Cc2cc3cc(N)ccc3nc2-1 (racemic)	–	6.25	5.97	365	3	Highest active dose [34]: 3.75 mg/kg
CCC1(O)C(=O)OCc2c1cc1n(c2=O)Cc2cc3c(O)cccc3nc2-1 (racemic)	0.9	–	–	134	0	Highest active dose [35]: 20 mg/kg
CCC1(OC(=O)CN)C(=O)OCc2c1cc1n(c2=O)Cc2cc3cc4c(cc3nc2-1)OCO4.Cl (racemic)	0.43	–	–	236	–	Highest active dose [16]: 10 mg/kg; IC50 [17]: 2.5 µM; KE [12]: 5.97; Toxic dose [36]: Not toxic; Cures [13]: 3
CCC1(O)C(=O)OCc2c1cc1n(c2=O)Cc2cc3c([N+](=O)[O-])cccc3nc2-1 (centres undefined)	–	40	5.97	348	5	Highest active dose [37]: 10 mg/kg
CCC(O)(C(=O)[O-])c1cc2n(c(=O)c1CO)Cc1cc3c(N)c4c(cc3nc1-2)OCO4.[Na+] (racemic)	5.5	–	–	–	–	T/C [38]: 1.4; Control [39]: 98%; T/C [40]: 1.78
CC[C@@]1(O)C(=O)OCc2c1cc1n(c2=O)Cc2cc3ccccc3nc2-1 [CAMPTOTHECIN]	–	10	4.8	250	1	Highest active dose [41]: 12 mg/kg
